Values of other authors, collected in US7217837B2, “Method for producing organic acid” (Mitsubishi Chemical Corporation, priority 2002, dated 2007).

What was measured:
[1] = water, Table 1, literature values
[2] = Table 1; literature values
[3] = Table 1; for pKa1: literature values (Pyne Organic Chemistry; Handbook of Chemistry and Physics); for pKa2: literature values

Row | SMILES | Solubility at 25° C. [1] [g/100 gH2O] | Isoelectric point pI [2] | pKa1 [3] | pKa2 [3]
1 | O=C(O)CCCC(=O)O [Glutaric acid] |  |  | 4.31 | 5.41
2 | N[C@@H](Cc1c[nH]cn1)C(=O)O [Histidine] | 4.29 | 7.64 |  | 
3 | CC[C@H](C)[C@H](N)C(=O)O [Isoleucine] | 4.117 | 6.04 | 2.32 | 
4 | CC(C)C[C@H](N)C(=O)O [Leucine] | 2.19 |  |  | 
5 | CSCC[C@H](N)C(=O)O [Methionine] | 3.35 | 5.74 | 2.28 | 
6 | N[C@@H](Cc1ccccc1)C(=O)O [Phenylalanine] | 2.965 | 5.91 | 2.58 | 
7 | N[C@@H](Cc1c[nH]c2ccccc12)C(=O)O [Tryptophan] | 1.14 | 5.88 | 2.38 | 
8 | N[C@@H](Cc1ccc(O)cc1)C(=O)O [Tyrosine] |  | 5.66 |  | 
9 | CC(C)[C@H](N)C(=O)O [Valine] | 8.85 | 6 | 2.29 | 

Further lines, with some results ahead:

Row | Solubility at 25° C. [1] [g/100 gH2O] | Isoelectric point pI [2] | pKa1 [3] | SMILES | pKa2 [3]
10 | 3.11 | 5.41 | 2.02 | NC(=O)C[C@H](N)C(=O)O [Asparagine] | 
11 |  | 2.98 |  | N[C@@H](CC(=O)O)C(=O)O [Aspartic acid] | 
12 |  | 3.08 |  | N[C@@H](CCC(=O)O)C(=O)O [Glutamic acid] | 
13 | 3.6 |  |  | NC(=O)CC[C@H](N)C(=O)O [Glutamine] | 
14 |  |  | 3.40 | O=C(O)CC(O)C(=O)O (stereo not drawn) [Malic acid] | 5.11
15 |  |  | 4.52 | O=C(O)CCCCCCC(=O)O [Suberic acid] | 
